From patent US9999616B2 (ZENITH EPIGENETICS LTD., priority 2013, dated 2018)

How the values were obtained:
[1] = tested on: c-myc in Human AML MV4-11 cells; assay: Inhibition of cMYC expression (mRNA, real-time PCR) in MV4-11 cells; format: cell-based; settings: 3 h treatment, cMYC mRNA by real-time PCR
In short: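 MV4-11 cells in IMDM with 10% FBS were treated with increasing compound concentrations (DMSO 0.1%) for 3 h at 37 °C, in triplicate. Isolated mRNA was quantified by one-step TaqMan RT-qPCR, cMYC Ct normalized to cyclophilin, and fold expression given relative to DMSO control.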

[2] = target: Brd4 bromodomain 1 (BRD4(1)) (Homo sapiens, UniProt O60885); assay: Inhibition of tetra-acetylated histone H4 binding to Brd4 bromodomain 1, measured by FRET (HTRF); parameters: made in house; host or cells: E. coli BL21(DE3); settings: 2 h at room temperature
In short: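 N-terminally His-tagged bromodomain (200 nM), expressed in E. coli and purified by Ni affinity and size exclusion, was incubated with biotinylated tetra-acetylated H4 peptide (25-50 nM), Eu-cryptate streptavidin and XL665 anti-His in HEPES pH 7.4 buffer with 0.2% DMSO. Reactions ran 2 h at room temperature. IC50 came from the 665/620 nm fluorescence decrease.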

Human AML MV-4-11 cells = assay: Inhibition of cell proliferation in MV4-11 cells (CellTiter Aqueous One); format: cell-based; settings: MV4-11, 72 h
In short: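 MV4-11 cells, 5×10^4 per well in IMDM with 10% FBS, were exposed to increasing compound concentrations or 0.1% DMSO for 72 h at 37 °C in triplicate. Viability was read by MTS (CellTiter Aqueous One) absorbance at 490 nm after 3-4 h. IC50 was derived from background-corrected signal relative to DMSO.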

hIL-6 mRNA = assay: Inhibition of hIL-6 mRNA transcription in LPS-stimulated U937 macrophages; format: cell-based, Human; settings: Homo sapiens, U-937, PMA-differentiated U937 cells, 1 h pretreatment, LPS 3 h, read-out: IL-6 activity
In short: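 PMA-differentiated U937 macrophages (60 ng/mL PMA, 3 days) pretreated 1 h with compound in 0.1% DMSO, then stimulated with 1 ug/mL E. coli LPS for 3 h at 37° C. IL-6 mRNA quantified by one-step TaqMan qRT-PCR, normalized to cyclophilin; fold expression relative to control, triplicate wells.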

hApoA-1 mRNA = assay: Up-regulation of hApoA-1 mRNA transcription in Huh7 cells; format: cell-based; settings: Homo sapiens, Huh-7, EC170 of hApoA-1 mRNA up-regulation, 48 h, read-out: ApoA-1 activity
Procedure: Huh7 cells (2.5×10^5 per well) were plated in a 96-well plate using 100 μL DMEM per well, (Gibco DMEM supplemented with penicillin/streptomycin and 10% FBS), 72 h before the addition of the compound. The cells are treated with increasing concentrations of the compound or DMSO (0.1%), and incubated at 37° C., 5% CO2 for 48 h. Spent media was removed from the Huh-7 cells and placed on ice for immediate use with the “LDH cytotoxicity assay Kit II” from Abcam. The cells remaining in the plate were rinsed with 100 μL PBS. Cells were harvested using the mRNA Catcher PLUS kit according to manufacturer's instructions. The eluted mRNA was then used in a one-step quantitative real-time PCR reaction, using components of the RNA UltraSense™ One-Step Kit (Life Technologies) together with Applied Biosystems TaqMan® primer-probes for hApoA-1 and Cyclophilin. Real-time PCR plates were run on a ViiA™7 real time PCR machine (Applied Biosystems), data was analyzed, normalizing the Ct values for hApoA-1 to an internal control, prior to determining the fold induction of each unknown sample, relative to the control.

hIL-17 mRNA = assay: Inhibition of hIL-17 mRNA transcription in OKT3-stimulated peripheral blood mononuclear cells; format: cell-based; settings: human PBMC, OKT3 stimulation 6 h, read-out: IL-17 Activity
Procedure: Human peripheral blood mononuclear cells were plated (2.0×10^5 cells per well) in a 96-well plate in 45 μL OpTimizer T Cell expansion media (Life Technologies) containing 20 ng/ml IL-2 and penicillin/streptomycin. The cells were treated with increasing concentrations of the test compound or DMSO (0.1%), and incubated at 37° C., 5% CO2 for 1 h before addition of 10× stock OKT3 antibody at 10 ug/ml in media. Triplicate wells were used for each concentration. Cells were incubated at 37° C., 5% CO2 for 6 h before the cells were harvested. At time of harvest, cells were pelleted by centrifugation at 800 rpm for 5 min. Cells were harvested using the mRNA Catcher PLUS kit according to manufacturer's instructions. The eluted mRNA was then used in a one-step quantitative real-time PCR reaction, using components of the RNA UltraSense™ One-Step Kit (Life Technologies) together with Applied Biosystems TaqMan® primer-probes for hIL-17 and Cyclophilin. Real-time PCR plates were run on a ViiA™7 real time PCR machine (Applied Biosystems), data was analyzed, normalizing the Ct values for hIL-17 to an internal control, prior to determining the fold induction of each unknown sample, relative to the control.

| Structure (SMILES) | melting point [°C] | IC50 [1] [nM] | IC50 [2] [nM] | IC50 (Human AML MV-4-11 cells) [nM] | IC50 (hIL-6 mRNA) [nM] | EC170 (hApoA-1 mRNA) [µM] | IC50 (hIL-17 mRNA) [nM] |
| --- | --- | --- | --- | --- | --- | --- | --- |
| Cc1noc(C)c1-c1cc(-c2c(C)noc2C)c2nc[nH]c2c1Br [Example Compound 192, 4,4′-(7-bromo-1H-benzo[d]imidazole-4,6-diyl)bis(3,5-dimethylisoxazole)] | 133 to 135 | 300 to 3000 | ≤ 300 | 3000 to 30000 |  |  |  |
| Cc1ccc(C#N)cc1-c1cc(-c2c(C)noc2C)cc2[nH]c(N3CCN(C)CC3)nc12 [Example Compound 186, 3-(6-(3,5-dimethylisoxazol-4-yl)-2-(4-methylpiperazin-1-yl)-1H-benzo[d]imidazol-4-yl)-4-methylbenzonitrile] | 133 to 135 | ≤ 300 | ≤ 300 | ≤ 300 |  |  |  |
| Cc1nc2c(-c3cn(C)nc3C)cc(-c3c(C)noc3C)cc2[nH]1 [Example Compound 60, 4-(4-(1,3-dimethyl-1H-pyrazol-4-yl)-2-methyl-1H-benzo[d]imidazol-6-yl)-3,5-dimethyl-isoxazole] |  | ≤ 300 | ≤ 300 | 300 to 3000 | ≤ 300 | ≤ 0.3 | 300 to 3000 |
| Cc1noc(C)c1-c1nc(NCc2ccccc2)c2ccccc2n1 [Example Compound 5, N-benzyl-2-(3,5-dimethylisoxazol-4-yl)quinazolin-4-amine] |  |  | 3000 to 30000 |  |  | ≤ 0.3 |  |
| Cc1nc2c(-c3ccc(N)nc3C)cc(-c3c(C)noc3C)cc2[nH]1 [Example Compound 68, 5-(6-(3,5-dimethyl-isoxazol-4-yl)-2-methyl-1H-benzo[d]imidazol-4-yl)-6-methyl-pyridin-2-amine] |  | ≤ 300 | ≤ 300 | ≤ 300 | ≤ 300 |  | ≤ 300 |
| Cc1nc2c(Nc3c(C)nn(C)c3C)cc(-c3c(C)noc3C)cc2[nH]1 [Example Compound 146, 6-(3,5-dimethyl-isoxazol-4-yl)-2-methyl-N-(1,3,5-trimethyl-1H-pyrazol-4-yl)-1H-benzo[d] imidazol-4-amine] |  | ≤ 300 | ≤ 300 | ≤ 300 | ≤ 300 |  | ≤ 300 |
| Cc1noc(C)c1-c1cc(-c2c(C)nn(C)c2C)c2[nH]c(S(C)(=O)=O)nc2c1 [Example Compound 195, 3,5-dimethyl-4-(2-(methylsulfonyl)-4-(1,3,5-trimethyl-1H-pyrazol-4-yl)-1H-benzo[d]imidazol-6-yl)isoxazole] | 254 to 256 | 300 to 3000 | ≤ 300 | 300 to 3000 |  |  |  |
| Cc1nc2c(-c3cc(F)ccc3C)cc(-c3c(C)noc3C)cc2[nH]1 [Example Compound 92, 4-(4-(5-fluoro-2-methyl-phenyl)-2-methyl-1H-benzo[d]imidazol-6-yl)-3,5-dimethyl isoxazole] |  | 300 to 3000 | ≤ 300 | 300 to 3000 | ≤ 300 |  | 300 to 3000 |
| Cc1noc(C)c1-c1cc2c(c(-c3c(C)noc3C)c1)OCCN2 [Example Compound 13, 6,8-bis(3,5-dimethylisoxazol-4-yl)-3,4-dihydro-2H-benzo[b][1,4]oxazine] |  | 300 to 3000 | ≤ 300 | 300 to 3000 | 300 to 3000 |  | 300 to 3000 |
| Cc1noc(C)c1-c1cc(-c2c(C)nn(C)c2C)c2[nH]c([S+](C)[O-])nc2c1 (centres unmarked) [Example Compound 194, 3,5-dimethyl-4-(2-(methylsulfinyl)-4-(1,3,5-trimethyl-1H-pyrazol-4-yl)-1H-benzo[d]imidazol-6-yl)isoxazole] | 242 to 244 |  | ≤ 300 | 300 to 3000 |  |  |  |
| Cc1nc2c(-c3c(C)noc3C)cc(-c3c(C)cnn3C)cc2[nH]1 [Example Compound 178, 4-(6-(1,4-dimethyl-1H-pyrazol-5-yl)-2-methyl-1H-benzo[d]imidazol-4-yl)-3,5-dimethylisoxazole] |  | 300 to 3000 | 300 to 3000 | 3000 to 30000 | 300 to 3000 |  | ≤ 300 |
| Cc1ccncc1-c1cc(-c2c(C)noc2C)cc2[nH]c(N3CCOCC3)nc12 [Example Compound 196, 4-(6-(3,5-dimethylisoxazol-4-yl)-4-(4-methylpyridin-3-yl)-1H-benzo[d]imidazol-2-yl)morpholine] | 137 to 141 | 300 to 3000 | 300 to 3000 | 300 to 3000 |  |  |  |
| Cc1ccc(C(N)=O)cc1-c1cc(-c2c(C)noc2C)cc2[nH]c(N3CCN(C)CC3)nc12 [Example Compound 189, 3-(6-(3,5-dimethylisoxazol-4-yl)-2-(4-methylpiperazin-1-yl)-1H-benzo[d]imidazol-4-yl)-4-methylbenzamide] | 133 to 135 | 300 to 3000 | ≤ 300 | 300 to 3000 |  |  |  |
| Cc1noc(C)c1-c1cc(Nc2ccccc2)c2nc[nH]c2c1 [Example Compound 7, 6-(3,5-dimethylisoxazol-4-yl)-N-phenyl-1H-benzo[d] imidazol-4-amine] |  | 300 to 3000 | ≤ 300 | 300 to 3000 | ≤ 300 |  | 300 to 3000 |
| Cc1noc(C)c1-c1cc(-c2c(C)noc2C)c2[nH]ncc2c1 [Example Compound 21, 4,4′-(1H-indazole-5,7-diyl)bis(3,5-dimethylisoxazole)] |  | 300 to 3000 | ≤ 300 | 300 to 3000 | 300 to 3000 |  | 300 to 3000 |
| Cc1noc(C)c1-c1cc(-c2c(C)noc2C)c2c(C)n[nH]c2c1 [Example Compound 179, 4,4′-(3-methyl-1H-indazole-4,6-diyl)bis(3,5-dimethylisoxazole)] | 228 to 230 | 300 to 3000 | ≤ 300 | 300 to 3000 |  |  |  |
| Cc1noc(C)c1-c1cc(-c2c(C)nn(C)c2C)c2nc(N3CCN(C)CC3)[nH]c2c1 [Example Compound 181, 3,5-dimethyl-4-(2-(4-methylpiperazin-1-yl)-4-(1,3,5-trimethyl-1H-pyrazol-4-yl)-1H benzo[d]imidazol-6-yl)isoxazole] | 195 to 197 | ≤ 300 | ≤ 300 | ≤ 300 | ≤ 300 |  |  |
| Cc1ncccc1-c1cc(-c2c(C)noc2C)cc2[nH]c(N3CCN(C)CC3)nc12 [Example Compound 183, 3,5-dimethyl-4-(2-(4-methylpiperazin-1-yl)-4-(2-methylpyridin-3-yl)-1H-benzo[d]imidazol-6-yl)isoxazole] | 238 to 240 | ≤ 300 | ≤ 300 | ≤ 300 |  |  |  |
| Cc1noc(C)c1-c1cc(-c2cccc(C#N)c2C)c2nc(N3CCN(C)CC3)[nH]c2c1 [Example Compound 202, 3-(6-(3,5-dimethylisoxazol-4-yl)-2-(4-methylpiperazin-1-yl)-1H-benzo[d]imidazol-4-yl)-2-methylbenzonitrile] | 179 to 182 | ≤ 300 | 300 to 3000 | ≤ 300 |  |  |  |
